Test results as given in patent publication US20030225279A1, “Stavudine Polymorphic Form 1 process” (priority 2000, published 2003).
“Also recorded” adds a separate entry of the source.

Experiments:
[1] = solid state, relative to Forms II and III; cited from earlier work
[2] = Solubility in supercritical carbon dioxide; assay type: physicochemical; conditions: supercritical carbon dioxide as antisolvent

Row | solubility in supercritical carbon dioxide [2] | Compound | thermodynamic stability / transformation to other polymorphic forms [1]
1 | – | Cc1cn([C@H]2C=C[C@@H](CO)O2)c(=O)[nH]c1=O [Form I, 2′, 3′-didehydro-3′-deoxythymidine] | stable and shows no transformations to other polymorphic forms; also recorded: most thermodynamically stable form, with no tendency for solid state conversion to the other Forms
2 | practically insoluble | Cc1cn([C@H]2C=C[C@@H](CO)O2)c(=O)[nH]c1=O [Stavudine, 2′, 3′-didehydro-3′-deoxythymidine] | –
